Columns and labels:
[1] = molecular target: HDAC1 enzyme (recombinant GST-HDAC1) (Homo sapiens (Human), UniProt Q13547); assay: In vitro HDAC assay for determination of IC50 values (BIOMOL fluorescent-based HDAC activity assay); type: biochemical; conditions: Flur de lys substrate, 2 h room temperature, read-out: IC50 (HDAC 1)
Procedure: Biological Testing and Enzyme Assays Recombinant GST-HDAC1 Protein Expression and Purification
Human cDNA library was prepared using cultured SW620 cells. Amplification of human HDAC1 coding region from this cDNA library was cloned separately into the baculovirus expression pDEST20 vector (GATEWAY Cloning Technology, Invitrogen Pte Ltd). The pDEST20-HDAC1 construct was confirmed by DNA sequencing. Recombinant baculovirus was prepared using the Bac-To-Bac method following the manufacturer's instruction (Invitrogen Pte Ltd).
Expression of GST-HDAC1 was done by infecting SF9 cells (Invitrogen Pte Ltd) with pDEST20-HDAC1 baculovirus at MOI=1 for 48 h. Soluble cell lysate was incubated with pre-equilibrated Glutathione Sepharose 4B beads (Amersham) at 4° C. for 2 h. The beads were washed with PBS buffer for 3 times. The GST-HDAC1 protein was eluted by elution buffer containing 50 mM Tris, pH8.0, 150 mM NaCl, 1% Triton X-100 and 10 mM or 20 mM reduced Glutathione. The purified GST-HDAC1 protein was dialyzed with HDAC storage buffer containing 10 mM Tris, pH7.5, 100 mM NaCl and 3 mM MgCl2. 20% Glycerol was added to purified GST-HDAC1 protein before storage at −80° C.
In Vitro HDAC Assay for Determination of IC50 Values
The assay has been carried out in 96 well format and the BIOMOL fluorescent-based HDAC activity assay has been applied. […] Flur de lys Developer was added and the reaction was incubated for 10 min. Briefly, deacetylation of the substrate sensitizes it to the developer, which then generates a fluorophore. The fluorophore is excited with 360 nm light and the emitted light (460 nm) is detected on a fluorometric plate reader (Tecan Ultra Microplate detection system, Tecan Group Ltd.).
The analytical software, Prism 4.0 (GraphPad Software Inc) has been used to generate IC50 from a series of data.

[2] = tested on: Colo205 cells; assay: Cell-based proliferation assay for determination of GI50 values (CyQUANT); set-up: species or system human; conditions: Homo sapiens, COLO 205, 96 h treatment
Procedure: Cell-Based Proliferation Assay for Determination of GI50 Values
Human cancer cell lines (e.g. Colo205) were obtained from ATCC. Colo205 cells were cultivated in RPMI 1640 containing 2 mM L-Glutamine, 5% FBS, 1.0 mM Na Pyruvate. Colo205 cells were seeded in 96-wells plate at 5000 cells per well. The plates were incubated at 37° C., 5% CO2, for 24 h. Cells were treated with compounds at various concentrations for 96 h. Cell growth was then monitored using CyQUANT® cell proliferation assay (Invitrogen Pte Ltd). Dose response curves were plotted to determine GI50 values for the compounds using XL-fit (ID Business Solution, Emeryville, Calif.). GI50 is defined as the concentration of compound required for 50% inhibition of cell growth.
The cellular or growth inhibition activity results of representative compounds are shown in Table 4 below (unit in the table is micromolar).

Sequence of HDAC1 enzyme (recombinant GST-HDAC1) (Q13547 whole entry): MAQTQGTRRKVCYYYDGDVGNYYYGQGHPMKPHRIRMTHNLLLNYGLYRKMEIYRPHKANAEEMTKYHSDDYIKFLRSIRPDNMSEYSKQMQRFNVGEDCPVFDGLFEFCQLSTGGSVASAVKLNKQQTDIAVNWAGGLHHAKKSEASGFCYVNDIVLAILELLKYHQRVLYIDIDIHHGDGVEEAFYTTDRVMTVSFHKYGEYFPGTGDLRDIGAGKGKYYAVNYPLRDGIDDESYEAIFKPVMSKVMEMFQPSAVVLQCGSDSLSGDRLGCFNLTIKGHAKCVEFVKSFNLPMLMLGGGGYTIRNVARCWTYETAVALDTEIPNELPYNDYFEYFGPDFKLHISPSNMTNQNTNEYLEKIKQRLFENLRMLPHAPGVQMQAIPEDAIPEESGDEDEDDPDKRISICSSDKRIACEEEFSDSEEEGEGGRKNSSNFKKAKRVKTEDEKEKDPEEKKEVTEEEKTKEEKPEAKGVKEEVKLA

Row | IC50 [1] | GI50 [2] | Compound
1 | 630 nM | 12 µM | CCCCCCc1nc2ccc(/C=C/C(=O)NO)cn2c1NCCC(=O)NCC [Compound 18, (E)-3-(3-(3-(ethylamino)-3-oxopropylamino)-2-hexylimidazo[1,2-a]pyridin-6-yl)-N-hydroxyacrylamide]
2 | 780 nM | 24 µM | CCCCCCc1nc2ccc(/C=C/C(=O)NO)cn2c1NCCC(=O)NCCN(C)C [Compound 19, (E)-3-(3-(3-(2-(dimethylamino)ethylamino)-3-oxopropylamino)-2-hexylimidazo[1,2-a]pyridin-6-yl)-N-hydroxyacrylamide]
3 | 99 nM | 28 µM | CCCCCCc1nc2cc(/C=C/C(=O)NO)ccn2c1NCCC(=O)NCCN(C)C [Compound 20, 3-{3-[2-(2-Dimethylamino-ethylcarbamoyl)-ethylamino]-2-hexyl-imidazo[1,2-a]pyridin-7-yl}-N-hydroxy-acrylamide]
4 | 130 nM | 13 µM | CCCCCCc1nc2cc(/C=C/C(=O)NO)ccn2c1NCCC(=O)NCCCC [Compound 21, 3-[3-(2-Butylcarbamoyl-ethylamino)-2-hexyl-imidazo[1,2-a]pyridin-7-yl]-N-hydroxy-acrylamide]
5 | 140 nM | 19 µM | CCCCCCc1nc2cc(C=CC(=O)NO)ccn2c1NCCC(=O)NC(C)(C)C [Compound 22, 3-[3-(2-tert-Butylcarbamoyl-ethylamino)-2-hexyl-imidazo[1,2-a]pyridin-7-yl]-N-hydroxy-acrylamide]
6 | 160 nM | 15 µM | CCCCCCc1nc2cc(/C=C/C(=O)NO)ccn2c1NCCC(=O)NCC(F)(F)F [Compound 23, 3-{2-Hexyl-3-[2-(2,2,2-trifluoro-ethylcarbamoyl)-ethylamino]-imidazo[1,2-a]pyridin-7-yl}-N-hydroxy-acrylamide]
7 | 130 nM | 40 µM | CCCCCCc1nc2cc(/C=C/C(=O)NO)ccn2c1NCCC(=O)NCCOC [Compound 24, 3-{2-Hexyl-3-[2-(2-methoxy-ethylcarbamoyl)-ethylamino]-imidazo[1,2-a]pyridin-7-yl}-N-hydroxy-acrylamide]
8 | 73 nM | 2.1 µM | CCCCCCc1nc2cc(/C=C/C(=O)NO)ccn2c1NCCC(=O)NCCSC [Compound 25, 3-{2-Hexyl-3-[2-(2-methylsulfanyl-ethylcarbamoyl)-ethylamino]-imidazo[1,2-a]pyridin-7-yl}-N-hydroxy-acrylamide]
9 | 140 nM | 7.9 µM | C#CCNC(=O)CCNc1c(CCCCCC)nc2cc(/C=C/C(=O)NO)ccn12 [Compound 26, 3-[2-Hexyl-3-(2-prop-2-ynylcarbamoyl-ethylamino)-imidazo[1,2-a]pyridin-7-yl]-N-hydroxy-acrylamide]
10 | 180 nM | 8.5 µM | CCCCCCc1nc2cc(/C=C/C(=O)NO)ccn2c1NCCC(=O)NC(CO)C(C)C (centres unmarked) [Compound 27, 3-{2-Hexyl-3-[2-(1-hydroxymethyl-2-methyl-propylcarbamoyl)-ethylamino]-imidazo[1,2-a]pyridin-7-yl}-N-hydroxy-acrylamide]
11 | 110 nM | 7.3 µM | CCCCCCc1nc2cc(/C=C/C(=O)NO)ccn2c1NCCC(=O)NCCN(CC)CC [Compound 28, 3-{3-[2-(2-Diethylamino-ethylcarbamoyl)-ethylamino]-2-hexyl-imidazo[1,2-a]pyridin-7-yl}-N-hydroxy-acrylamide]
12 | 380 nM | 2.1 µM | CCCCCCc1nc2cc(/C=C/C(=O)NO)ccn2c1NCCC(=O)NCC [Compound 29, 3-[3-(2-Ethylcarbamoyl-ethylamino)-2-hexyl-imidazo[1,2-a]pyridin-7-yl]-N-hydroxy-acrylamide]
13 | 880 nM | 3.9 µM | CCCCCCc1nc2cc(/C=C/C(=O)NO)ccn2c1NCCC(=O)N(C)C [Compound 30, 3-[3-(2-Dimethylcarbamoyl-ethylamino)-2-hexyl-imidazo[1,2-a]pyridin-7-yl]-N-hydroxy-acrylamide]
14 | 240 nM | 2.8 µM | CCCCCCc1nc2cc(/C=C/C(=O)NO)ccn2c1NCCC(=O)N(C)CCN(C)C [Compound 32, 3-(3-{2-[(2-Dimethylamino-ethyl)-methyl-carbamoyl]-ethylamino}-2-hexyl-imidazo[1,2a]pyridin-7-yl)-N-hydroxy-acrylamide]
15 | 830 nM | 27 µM | CCCCCCc1nc2cc(/C=C/C(=O)NO)ccn2c1NCCC(=O)N(CCC)CCO [Compound 33, 3-(2-Hexyl-3-{2-[(2-hydroxy-ethyl)-propyl-carbamoyl]-ethylamino}-imidazo[1,2-a]pyridin-7-yl)-N-hydroxy-acrylamide]
16 | 870 nM | 42 µM | O=C(/C=C/c1ccn2cc(-c3ccccc3)nc2c1)NO [Compound 34, N-Hydroxy-3-(2-phenyl-imidazo[1,2-a]pyridin-7-yl)-acrylamide]
17 | 140 nM | 9.3 µM | CCCCCCc1nc2cc(/C=C/C(=O)NO)ccn2c1NCCC(=O)NCC(C)(C)CN(C)C [Compound 35, 3-{3-[2-(3-Dimethylamino-2,2-dimethyl-propylcarbamoyl)-ethylamino]-2-hexyl-imidazo[1,2-a]pyridin-7-yl}-N-hydroxy-acrylamide]
18 | 390 nM | 14 µM | CCCCCCc1nc2cc(/C=C/C(=O)NO)ccn2c1NCCC(=O)NC [Compound 36, 3-[2-Hexyl-3-(2-methylcarbamoyl-ethylamino)-imidazo[1,2-a]pyridin-7-yl]-N-hydroxy-acrylamide]
19 | 590 nM | 5.3 µM | CCCCCCc1nc2cc(/C=C/C(=O)NO)ccn2c1NCCC(=O)N(C)C(C)C [Compound 37, 3-{2-Hexyl-3-[2-(isopropyl-methyl-carbamoyl)-ethylamino]-imidazo[1,2-a]pyridin-7-yl}-N-hydroxy-acrylamide]
20 | 360 nM | 3.5 µM | CCCCCCc1nc2cc(/C=C/C(=O)NO)ccn2c1NCCC(=O)N(CCOC)C(C)C [Compound 38, 3-(2-Hexyl-3-{2-[isopropyl-(2-methoxy-ethyl)-carbamoyl]-ethylamino}-imidazo[1,2-a]pyridin-7-yl)-N-hydroxy-acrylamide]
21 | 1300 nM | 2.5 µM | Cc1cn2ccc(/C=C/C(=O)NO)cc2n1 [Compound 41, N-Hydroxy-3-(2-methyl-imidazo[1,2-a]pyridin-7-yl)-acrylamide]
22 | 160 nM | 1.5 µM | CCCCNCc1c(C)nc2cc(/C=C/C(=O)NO)ccn12 [Compound 42, 3-(3-Butylaminomethyl-2-methyl-imidazo[1,2-a]pyridin-7-yl)-N-hydroxy-acrylamide]
23 | 2000 nM | 34 µM | CCN(CC)CCNCc1c(C(C)(C)C)nc2cc(/C=C/C(=O)NO)ccn12 [Compound 43, 3-{2-tert-Butyl-3-[(2-diethylamino-ethylamino)-methyl]-imidazo[1,2-a]pyridin-7-yl}-N-hydroxy-acrylamide]
24 | 2900 nM | 32 µM | CCN(CCN(C)C)Cc1c(-c2ccccc2)nc2cc(/C=C/C(=O)NO)ccn12 [Compound 44, 3-(3-{[(2-Dimethylamino-ethyl)-ethyl-amino]-methyl}-2-phenyl-imidazo[1,2-a]pyridin-7-yl)-N-hydroxy-acrylamide]
25 | > 10000 nM | 11 µM | O=C(/C=C/c1ccn2c(CNCC(F)(F)F)c(-c3ccccc3)nc2c1)NO [Compound 46, N-Hydroxy-3-{2-phenyl-3-[(2,2,2-trifluoro-ethylamino)-methyl]-imidazo[1,2-a]pyridin-7-yl}-acrylamide]
26 | 650 nM | 30 µM | CCN(CC)CCNCc1c(-c2ccccc2)nc2cc(/C=C/C(=O)NO)ccn12 [Compound 47, 3-{3-[(2-Diethylamino-ethylamino)-methyl]-2-phenyl-imidazo[1,2a]pyridin-7-yl}-N-hydroxy-acrylamide]
27 | 1000 nM | 9.2 µM | CCCN(CCO)Cc1c(-c2ccccc2)nc2cc(/C=C/C(=O)NO)ccn12 [Compound 48, N-Hydroxy-3-(3-{[(2-hydroxy-ethyl)-propyl-amino]-methyl}-2-phenyl-imidazo[1,2-a]pyridin-7-yl)-acrylamide]
28 | 520 nM | 2.4 µM | CCCN(C)Cc1c(C(C)(C)C)nc2cc(/C=C/C(=O)NO)ccn12 [Compound 50, 3-{2-tert-Butyl-3-[(methyl-propyl-amino)-methyl]-imidazo[1,2-a]pyridin-7-yl}-N-hydroxy-acrylamide]
